In patent US10202412B2, “β-D-2′-deoxy-2′-substituted-4′-substituted-2-substituted-N6-substituted-6-aminopurinenucleotides for the treatment of paramyxovirus and orthomyxovirus infections” (Atea Pharmaceuticals, Inc., priority 2016, dated 2019):

Assays:
[1] = test system: Respiratory syncytial virus (RSV) type A, strain A2 (ATCC VR-1540); assay: dNHBE assay: RSV virus yield reduction (EC90); format: cell-based; conditions: RSV (A2) in dNHBE cells, concentration reducing virus yield by 1 log10, mean of at least two experiments
Protocol: (§1) Differentiated normal human bronchial epithelial (dNHBE) cells were grown on 6 mm mesh disks in transwell inserts to approximately 1.2×10^6 cells/disk and disks were transferred to individual wells of a 6-well plate. 1 mL of proprietary culture medium was added to the basolateral side of the cells and the apical side was exposed to a humidified 95% air/5% CO2 environment. Cells were cultured at 37° C. for one day and then the mucin layer was removed from the apical side of the cells by repeated (3×) washing with 500 μL 30 mM HEPES buffered saline solution and culture medium on the basal side was replenished.
Respiratory syncytial virus (RSV) type A, strain A2 (ATCC VR-1540), previously passaged in MA-104 cells to make working stock cultures, was diluted 1/10 in medium before infection, using a multiplicity of infection (MOI) of ≤0.03 CCID50 per cell.
(§2) Various concentrations of test compounds in medium were applied in duplicate to the apical (140 μL) and basal sides (1 mL) for a 1 hour pre-treatment, followed by addition of 140 μL of virus inoculum to each cell insert on the apical side. The viral inoculum and treatments were removed after 2 hours. Control cells were treated with placebo (culture medium only). Following infection, the apical medium was removed and the basal side was replaced with fresh compound in medium. The cells were maintained at the air-liquid interface, and cell culture medium on the basal side was replaced daily with fresh medium containing test compound. After 4 days, the liquid was removed from the basal side and discarded and virus released into the apical compartment was harvested by the addition of 500 μL of culture medium. The medium was thoroughly mixed, then removed, diluted 1:1 with 40% sucrose and stored at ≤−80° C.
To determine the virus titer from each treated cell culture, MA-104 cells were seeded in 96-well plates and grown overnight (37° C.) to confluence. Samples containing virus were diluted in 10-fold increments in infection medium and 200 μL of each dilution transferred into respective wells of a 96-well microtiter plate. Four microwells were used for each dilution to determine 50% viral endpoints. After 7 days of incubation, each well was scored positive for virus if any cytopathic effect was observed as compared with the uninfected control. The virus dose that was able to infect 50% of the cell cultures (CCID50 per 0.1 mL) was calculated by the Reed-Muench method. This was repeated in duplicate for each test sample, so that values reported are an average of 2 independent CCID5o determinations. Untreated, uninfected cell controls were tested as negative controls. Statistical differences in the titers were evaluated with a one-way analysis of variance (ANOVA) followed by Dunnett's multiple comparisons test compared with the untreated virus controls.
(§3) Concentrations of test compounds that reduced virus yield by 1 log10 (90% effective concentration; EC90) were calculated by regression analysis. The reported EC90 value is the mean of at least two experiments. Potential toxicity of the test compounds was evaluated microscopically.

[2] = test system: respiratory syncytial virus A2 (ATCC VR-1540); assay: Cytopathic effect assay with RSV A2 in HEp-2 cells; format: cell-based; conditions: human respiratory syncytial virus; RSV in HEp-2 cells, CPE inhibition, neutral red
Protocol: (§4) Test compounds were dissolved in DMSO and then prepared in eight half-log dilutions in MEM medium with 50 μg/mL gentamicin and 2% FBS (MA-104 cells only). Each dilution was added to 5 wells of a 96-well plate with 80-100% confluent cells (either MA-104 cells or HEp-2 cells). Three wells of each dilution were infected with respiratory syncytial virus A2 (ATCC VR-1540) and two wells remained uninfected as toxicity controls. After maximum cytopathic effect (CPE) was observed microscopically in untreated virus control wells, plates were stained with neutral red dye for approximately 2 hours, then supernatant dye was removed and the incorporated dye was extracted in 50:50 Sorensen citrate buffer/ethanol and read on a spectrophotometer. Optical density values were normalized based on cell and virus controls, then the concentration of test compound required to inhibit CPE by 50% (EC50) was calculated by regression analysis. The reported EC50 value is the mean of at least two experiments. The concentration of compound that caused 50% CPE in the absence of virus was similarly calculated to determine cytotoxicity (CC50).

[3] = test system: respiratory syncytial virus A2 (ATCC VR-1540); assay: Cytopathic effect assay with RSV A2 in MA-104 cells; format: cell-based; conditions: human respiratory syncytial virus, MA104, CPE inhibition, neutral red
Protocol: as §4

[4] = test system: Differentiated normal human bronchial epithelial (dNHBE) cells; assay: dNHBE assay: toxicity evaluated microscopically; format: cell-based; parameters: unit not given here
Protocol: as §1, §2, §3

HEp-2 cells = assay: Cytotoxicity in uninfected HEp-2 cells, neutral red; format: cell-based; parameters: unit not given here; conditions: absence of virus
Protocol: as §4

iPS cardiomyocytes = assay: iPS cardiomyocyte assay (XTT viability); format: cell-based; conditions: 72 h, 3 days incubation, XTT staining
Protocol: Select compounds were tested in an in vitro selectivity study with iPS cardiomyocytes. iPS cardiomyocytes (Cellular Dynamics) were seeded in microliter plates at 1.5×10^4 cells per well. After 48-hr incubation, cells were washed and maintenance medium containing 30 serially diluted TA was added in triplicate. After incubating for an additional 3 days, cellviability was measured by staining with XTT and CC50 values were calculated. No cytotoxicity was observed from any of the tested compounds.

[5] = test system: human bone marrow progenitor cells (BFU-E); assay: Human bone marrow progenitor cell assay, BFU-E; format: cell-based; conditions: Homo sapiens, 336 h; BFU-E-specific culture, 14-day incubation, colony counts; read-out: Bone Marrow Stem Cell IC50 BFU-E
Protocol: (§5) Select compounds were tested in an in vitro selectivity study with human bone marrow progenitor cells. Fresh human bone marrow progenitor cells (Invitrogen) suspended in either BFU-E or GM-CSF-specific culture medium were added, at 10^5 cells/well, to triplicate serial dilutions of TA in 6-well plates. After 14-day incubations, colony counts were used to determine […] values. BFU-E colonies were confirmed using the benzidene technique. No cytotoxicity was observed from any of the tested compounds.

[6] = test system: human bone marrow progenitor cells (CFU-GM); assay: Human bone marrow progenitor cell assay, CFU-GM (GM-CSF-specific culture); format: cell-based; conditions: Homo sapiens, CFU-GM, 336 h, 14-day incubation, colony counts, read-out: Bone Marrow Stem Cell IC50 CFU-GM
Protocol: as §5

[7] = Hamster lung triphosphate assay; format: in vivo, Golden Syrian hamsters; conditions: analog triphosphate in hamster lung tissue 72 h after oral target dose of 50 mg/kg in PEG400
Protocol: Male Golden Syrian hamsters (n=3 per test compound) were fasted overnight and then administered test compounds in PEG400 at a target dose of 50 mg/kg by oral gavage. Food was returned 4 h after dosing. At 72 h post dose, animals were anesthetized and a sample of lung tissue was removed and flash-frozen in liquid nitrogen. Approximately 0.5 g of frozen tissue was homogenized using a Polytron homogenizer in 5 volumes homogenization solution (MeOH:50% aqueous KOH:268 mM EDTA, pH 8, 1750:5:750, v/v) in a dry ice/ethanol bath. Supernatants were prepared by centrifugation and analyzed by LC-MS/MS for concentrations of the corresponding analog triphosphates. See Table 7 below for the 72 hour lung triphosphate concentration. After 72 hours, the lung triphosphate concentration following administration of Compound AB and Compound AC was greater than 800 ng/g.

[8] = human respiratory syncytial virus

Row | SMILES | EC90 [1, 8] | EC50 [2] | EC50 [3] | Visual toxicity [4] | TC50 (HEp-2 cells) | IC50 (iPS cardiomyocytes) | IC50 [5] | IC50 [6] | EC90 [1] | 72 h Lung TP Concentration [7]
1 | Nc1ccn([C@@H]2O[C@@](CO)(CCl)C(O)[C@H]2F)c(=O)n1 (stereo in doubt) [W] | 0.58 µM | 0.6 µM | 9.6 µM | >338 | >100 | – | – | – | – | –
2 | CNc1nc(N)nc2c1ncn2[C@@H]1O[C@](C)(CO)[C@@H](O)[C@H]1F [Compound C, (2R,3R,4R,5R)-5-(2-Amino-6-(methylamino)-9H-purin-9-yl)-4-fluoro-2-(hydroxymethyl)-2-methyltetrahydrofuran-3-ol] | 3.2 µM | > 100 µM | – | >320 | >100 | – | – | – | – | –
3 | CC[C@]1(CO)O[C@@H](n2cnc3c(N(C)C)nc(N)nc32)[C@H](F)[C@@H]1O [Compound O, (2R,3R,4R,5R)-5-(2-Amino-6-(dimethylamino)-9H-purin-9-yl)-2-ethyl-4-fluoro-2-(hydroxymethyl)tetrahydrofuran-3-ol] | > 293 µM | > 100 µM | > 293 µM | >293 | >100 | – | – | – | – | –
4 | CNc1nc(F)nc2c1ncn2[C@@H]1O[C@](CCl)(CO[P@@](=O)(N[C@@H](C)C(=O)OC(C)C)Oc2ccccc2)[C@@H](O)[C@@H]1F [AQ, (S)-Isopropyl 2-(((S)-(((2R,3R,4S,5R)-5-(6-(methylamino)-2-fluoro-9H-purin-9-yl)-2-(chloromethyl)-4-fluoro-3-hydroxytetrahydrofuran-2-yl)methoxy)(phenoxy)phosphoryl)amino) propanoate] | 0.18 µM | – | – | >1.6 | – | > 100 µM | > 100 µM | > 100 µM | – | –
5 | CC(C)OC(=O)[C@H](C)N[P@](=O)(OC[C@@]1(C)O[C@@H](n2cnc3c(N(C)C)nc(NC(=O)C(C)C)nc32)[C@H](F)[C@@H]1O)Oc1ccccc1 [AO, (S)-Isopropyl 2-(((S)-(((2R,3R,4R,5R)-5-(6-(dimethylamino)-2-isobutyramido-9H-purin-9-yl)-4-fluoro-3-hydroxy-2-methyltetrahydrofuran-2-yl)methoxy)(phenoxy)phosphoryl)amino) propanoate] | – | – | – | >1.5 | – | – | – | – | 0.096 µM | 108 ng/g
6 | CNc1nc(N)nc2c1ncn2[C@@H]1O[C@](C)(COP(=O)(N[C@@H](C)C(=O)OC(C)C)Oc2ccccc2)[C@@H](O)[C@H]1F (stereo partly drawn) [Compound D] | 1.7 µM | > 100 µM | – | >172 | >100 | – | – | – | – | –
7 | CNc1nc(N)nc2c1ncn2[C@@H]1O[C@](C)(CO[P@@](=O)(N[C@@H](C)C(=O)OC(C)C)Oc2ccccc2)[C@@H](O)[C@H]1F [Compound AB, (S)-Isopropyl 2-(((S)-(((2R,3R,4R,5R)-5-(2-amino-6-(methylamino)-9H-purin-9-yl)-4-fluoro-3-hydroxy-2-methyltetrahydrofuran-2-yl)methoxy)(phenoxy)phosphoryl)amino) propanoate] | – | – | – | >17 | – | > 100 µM | > 100 µM | > 100 µM | 0.052 µM | –
8 | CC[C@]1(COP(=O)(N[C@@H](C)C(=O)OC(C)C)Oc2ccccc2)O[C@@H](n2cnc3c(N(C)C)nc(N)nc32)[C@H](F)[C@@H]1O (stereo partly drawn) [Compound P, (2S)-Isopropyl 2-(((((2R,3R,4R,5R)-5-(2-amino-6-(dimethylamino)-9H-purin-9-yl)-2-ethyl-4-fluoro-3-hydroxytetrahydrofuran-2-yl)methoxy)(phenoxy)-phosphoryl)amino) propanoate] | 88.6 µM | > 100 µM | > 164 µM | >143 | >100 | – | – | – | – | –
